The numbers were not newly measured in EP1941860A1, “Topical formulations” (ACO Hud Nordic AB, priority 2006, dated 2008), which cites them from elsewhere.

The conditions of this data set: in prior art formulations.

Regarding `CC(O)C(=O)O` (stereo not shown) [lactic acid], the “concentration producing a stinging action” value is “about 0.5 % by weight of the formulation”.
